Some test systems named below: COLO 205 colon; SF-295 CNS; SK-MEL-5 melanoma; CCRF-CEM leukemia; MDA-MB-435; T-47D breast; IGROV1 ovarian; K-562 leukemia; HL-60(TB) leukemia; KM12 colon.
Common to all, as to experiment: growth of human tumour cells (NCI), 48 h

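How tested: cells in 96-well plates exposed to compound for 48 hours at five concentrations. GI50 is the concentration that inhibits growth by half. The concentration for full growth arrest is given as TGI.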 *1 amine or outer side, *2 acyl side, *3 side chain or, on linkers, in order; H or OH if unused. Where a SMILES comes first, the peptide text is derived from it. Bridges are numbered along the chain shown (N, C = ends). [ ]: non-standard residue; d: D form. The star is where a group is joined. Phe(3-Me) = Cc1cccc(C[C@H](N)C(=O)O)c1; NH(4-Cl-2-F-phenyl) = Fc1cc(Cl)ccc1N*; Pro(4R-Me) = C[C@H]1CN[C@H](C(=O)O)C1; Propanoyl(3-NMe2) = CN(C)CCC(=O)*; Hyp = O=C(O)[C@@H]1C[C@@H](O)CN1; aThr = C[C@H](O)[C@H](N)C(=O)O; Pip = O=C(O)[C@@H]1CCCCN1; CO = O=C([*:1])[*:2]

Turning to `Oc1cc2ccccc2cc1-c1n[nH]c(=S)n1-c1ccc(Cl)cc1`, the GI50 with COLO 205 colon was 41.7 µM; in the assay with SF-295 CNS, 13.1 µM; in the assay with SK-MEL-5 melanoma it was 14.4 µM; in the assay on CCRF-CEM leukemia, 21.9 µM; with MDA-MB-435 it was 4.66 µM; with T-47D breast, 31.6 µM. Also, the GI50 was 1.31 µM in the assay with IGROV1 ovarian, above 100 µM in the assay on K-562 leukemia, 19 µM with HL-60(TB) leukemia and 9.14 µM with KM12 colon. In addition, the TGI was above 100 µM in the assay with COLO 205 colon; above 100 µM in the assay with SF-295 CNS; 38.2 µM with SK-MEL-5 melanoma; above 100 µM in the assay on CCRF-CEM leukemia; above 100 µM in the assay on MDA-MB-435; above 100 µM in the assay with T-47D breast. In addition, the TGI in the assay with IGROV1 ovarian is 7.67 µM; with K-562 leukemia it was above 100 µM; in the assay with HL-60(TB) leukemia it was above 100 µM; in the assay with KM12 colon it was above 100 µM.
Take `CC(=O)Nc1sc2c(c1-c1nc3ccccc3s1)CNC2`: the GI50 in the assay with COLO 205 colon is 1.88 µM; with SF-295 CNS, 2.25 µM; with SK-MEL-5 melanoma, 5.23 µM; with CCRF-CEM leukemia, 3.74 µM; in the assay on MDA-MB-435 it was 3.48 µM; in the assay on T-47D breast, 2.36 µM. Besides, the GI50 with IGROV1 ovarian was 2.07 µM; with K-562 leukemia, 2.23 µM; in the assay with HL-60(TB) leukemia, 2.84 µM; in the assay with KM12 colon, 3.38 µM. For the same compound, the TGI in the assay on COLO 205 colon turned out to be 9.73 µM; with SF-295 CNS, 9.93 µM; with SK-MEL-5 melanoma, 11.2 µM; in the assay with CCRF-CEM leukemia, 22.2 µM; with MDA-MB-435, 12.5 µM; with T-47D breast, 22.3 µM. For the same compound, the TGI in the assay with IGROV1 ovarian is 11.9 µM; with K-562 leukemia, 11.1 µM; in the assay on HL-60(TB) leukemia, 11.6 µM; in the assay on KM12 colon, above 50 µM.
For `O=C(O)/C=C\C(=O)Nc1ccc2c(c1)C(=O)c1cc(F)ccc1-2`, the TGI with COLO 205 colon, with SF-295 CNS, with SK-MEL-5 melanoma, in the assay on CCRF-CEM leukemia, with MDA-MB-435 and with T-47D breast was above 100 µM throughout. In addition, the TGI in the assay with IGROV1 ovarian, in the assay on K-562 leukemia, in the assay with HL-60(TB) leukemia and in the assay with KM12 colon was above 100 µM throughout.
Regarding `CN1CCCN(C(c2ccccc2)c2ccc(Br)cc2)CC1` (centres undefined), the GI50 with COLO 205 colon was 3.93 µM; in the assay with SF-295 CNS it was 3.52 µM; in the assay with SK-MEL-5 melanoma it was 1.85 µM; with CCRF-CEM leukemia, 4.14 µM; in the assay with MDA-MB-435, 1.87 µM; with T-47D breast it was 3.18 µM. The GI50 with IGROV1 ovarian was 8.83 µM; in the assay on K-562 leukemia, 5.04 µM; in the assay with HL-60(TB) leukemia, 3.52 µM; in the assay on KM12 colon, 2.73 µM. The TGI with COLO 205 colon is 16.2 µM; in the assay on SF-295 CNS, 14.5 µM; in the assay on SK-MEL-5 melanoma, 3.74 µM; in the assay with CCRF-CEM leukemia it was 18.9 µM; in the assay on MDA-MB-435, 3.83 µM; in the assay with T-47D breast, 19.2 µM. Moreover, the TGI was 22.1 µM with IGROV1 ovarian, above 100 µM in the assay with K-562 leukemia, 34.1 µM in the assay with HL-60(TB) leukemia and 7.09 µM in the assay with KM12 colon.
In the case of `CC([O-])C(=O)[O-].NCC1CCC1CN.[Pt+4]` (centres undefined), the GI50 was above 10 µM in the assay on COLO 205 colon; above 10 µM with SF-295 CNS; 7.41 µM in the assay with SK-MEL-5 melanoma; 4.39 µM in the assay on CCRF-CEM leukemia; above 10 µM with MDA-MB-435; above 10 µM in the assay on T-47D breast. For the same compound, the GI50 in the assay on IGROV1 ovarian, with K-562 leukemia, in the assay with HL-60(TB) leukemia and in the assay on KM12 colon was above 10 µM in each case. For the same compound, the TGI with COLO 205 colon, with SF-295 CNS, in the assay with SK-MEL-5 melanoma, with CCRF-CEM leukemia, with MDA-MB-435 and with T-47D breast was above 10 µM in each case. Further, the TGI with IGROV1 ovarian, in the assay with K-562 leukemia, with HL-60(TB) leukemia and with KM12 colon was above 10 µM each time.
Regarding `CCCCCCCCCC(CCCC(O)CC(=O)O)OC1OC(COC2OC(C)C(O)C(O)C2O)C(O)C(O)C1OC1OC(CO)C(O)C(O)C1OC1OC(C)C(O)C(O)C1O` (centres undefined), the GI50 in the assay with COLO 205 colon, in the assay with SF-295 CNS, with SK-MEL-5 melanoma, in the assay on CCRF-CEM leukemia, with MDA-MB-435 and with T-47D breast was above 40 µM each time. Besides, the GI50 with IGROV1 ovarian, with K-562 leukemia, in the assay with HL-60(TB) leukemia and in the assay on KM12 colon was above 40 µM in each case. The TGI in the assay on COLO 205 colon, in the assay with SF-295 CNS, with SK-MEL-5 melanoma, in the assay with CCRF-CEM leukemia, with MDA-MB-435 and in the assay on T-47D breast was above 40 µM throughout. Moreover, the TGI in the assay on IGROV1 ovarian, with K-562 leukemia, in the assay on HL-60(TB) leukemia and with KM12 colon was above 40 µM throughout.
For `CNC1C(OC2C(OC3C(O)C(O)C(O)C(O)C3O)OC(C)C2(O)CO)OC(CO)C(O)C1O` (centres undefined) (tested in a mixture with another compound), the TGI in the assay with COLO 205 colon, in the assay with SF-295 CNS, in the assay on SK-MEL-5 melanoma, with CCRF-CEM leukemia, in the assay with MDA-MB-435 and in the assay with T-47D breast was above 100 µM in each case. For the same compound, the TGI in the assay on IGROV1 ovarian, in the assay with K-562 leukemia, in the assay on HL-60(TB) leukemia and in the assay on KM12 colon was above 100 µM throughout.
As for `Cc1cccc(C[C@H](NC(=O)Nc2ccc(Cl)cc2F)C(=O)N[C@@H]2C(=O)N3C[C@H](OC(=O)CCN(C)C)C[C@H]3C(=O)N3CCCC[C@H]3C(=O)N[C@@H](C)C(=O)N3C[C@H](C)C[C@H]3C(=O)O[C@H]2C)c1` ({NH(4-Cl-2-F-phenyl)-CO}-[Phe(3-Me)][aThr][Hyp](Propanoyl(3-NMe2))[Pip]A[Pro(4R-Me)]; ester 2-C), the GI50 in the assay on COLO 205 colon was 0.355 µM; with SF-295 CNS, 0.426 µM; in the assay on SK-MEL-5 melanoma, 0.46 µM; in the assay on CCRF-CEM leukemia, 0.47 µM; with MDA-MB-435, 0.432 µM; in the assay with T-47D breast, 0.448 µM. In addition, the GI50 was 0.94 µM in the assay with IGROV1 ovarian, 0.3 µM in the assay with K-562 leukemia, 0.354 µM with HL-60(TB) leukemia and 0.746 µM in the assay with KM12 colon. Also, the TGI in the assay on COLO 205 colon was 1.43 µM; with SF-295 CNS, 2.15 µM; in the assay with SK-MEL-5 melanoma, 1.62 µM; with CCRF-CEM leukemia it was 7.81 µM; in the assay with MDA-MB-435 it was 1.65 µM; in the assay with T-47D breast it was 4.53 µM. Further, the figures for the TGI in the assay on IGROV1 ovarian, in the assay with HL-60(TB) leukemia and in the assay on KM12 colon were 2.46 µM, 1.9 µM and 2.34 µM, respectively.

For the origin of these results see PubChem BioAssay (NCI).
